Laboratory results reported in article PMC3361267 (Journal of Medicinal Chemistry, 2012).
Entries after “also recorded” stand apart in the source; their conditions may differ. Where two headings read alike, the source gives them in different places. *1 amine or outer side, *2 acyl side, *3 side chain or, on linkers, in order; H or OH if unused. Where a SMILES comes first, the peptide text is derived from it. Bridges are numbered along the chain shown (N, C = ends). [ ]: non-standard residue; d: D form. X1 = O=C([C@@H](N[*:1])c1c([*:3])[nH]c2ccccc12)[*:2]; Leu(4R-OH,5-OH) = C[C@](O)(CO)C[C@H](N)C(=O)O; cisHyp = O=C(O)[C@@H]1C[C@H](O)CN1

Experiments:
OATP2B1 [1] = target: T1, OATP2B1 (Homo sapiens, UniProt O94956); conditions: for classification as OATP2B1 inhibitor/stimulator (single-point): 20 μM
T1 sequence (O94956 1-709): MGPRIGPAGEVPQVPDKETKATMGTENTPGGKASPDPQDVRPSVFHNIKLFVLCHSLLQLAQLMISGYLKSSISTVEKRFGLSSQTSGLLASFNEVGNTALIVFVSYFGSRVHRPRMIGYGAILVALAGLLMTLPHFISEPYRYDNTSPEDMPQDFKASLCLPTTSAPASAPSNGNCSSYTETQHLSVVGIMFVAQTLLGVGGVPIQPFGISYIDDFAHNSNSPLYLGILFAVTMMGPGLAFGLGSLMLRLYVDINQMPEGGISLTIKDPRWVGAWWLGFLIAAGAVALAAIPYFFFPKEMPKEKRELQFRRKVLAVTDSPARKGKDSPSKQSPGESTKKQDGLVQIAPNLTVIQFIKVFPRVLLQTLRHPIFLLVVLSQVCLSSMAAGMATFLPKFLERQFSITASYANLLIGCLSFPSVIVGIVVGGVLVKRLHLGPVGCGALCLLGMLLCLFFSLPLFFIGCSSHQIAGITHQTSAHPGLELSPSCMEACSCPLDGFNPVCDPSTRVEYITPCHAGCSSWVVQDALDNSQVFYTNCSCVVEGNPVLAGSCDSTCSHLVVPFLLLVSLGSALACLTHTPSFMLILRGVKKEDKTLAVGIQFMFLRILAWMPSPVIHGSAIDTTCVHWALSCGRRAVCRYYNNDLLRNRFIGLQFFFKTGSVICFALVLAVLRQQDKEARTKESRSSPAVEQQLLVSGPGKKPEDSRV

OATP1B3 = target: T2, OATP1B3 (Homo sapiens, UniProt Q9NPD5); conditions: for classification as OATP1B3 inhibitor/stimulator (single-point): 20 μM
T2 sequence (Q9NPD5 1-702): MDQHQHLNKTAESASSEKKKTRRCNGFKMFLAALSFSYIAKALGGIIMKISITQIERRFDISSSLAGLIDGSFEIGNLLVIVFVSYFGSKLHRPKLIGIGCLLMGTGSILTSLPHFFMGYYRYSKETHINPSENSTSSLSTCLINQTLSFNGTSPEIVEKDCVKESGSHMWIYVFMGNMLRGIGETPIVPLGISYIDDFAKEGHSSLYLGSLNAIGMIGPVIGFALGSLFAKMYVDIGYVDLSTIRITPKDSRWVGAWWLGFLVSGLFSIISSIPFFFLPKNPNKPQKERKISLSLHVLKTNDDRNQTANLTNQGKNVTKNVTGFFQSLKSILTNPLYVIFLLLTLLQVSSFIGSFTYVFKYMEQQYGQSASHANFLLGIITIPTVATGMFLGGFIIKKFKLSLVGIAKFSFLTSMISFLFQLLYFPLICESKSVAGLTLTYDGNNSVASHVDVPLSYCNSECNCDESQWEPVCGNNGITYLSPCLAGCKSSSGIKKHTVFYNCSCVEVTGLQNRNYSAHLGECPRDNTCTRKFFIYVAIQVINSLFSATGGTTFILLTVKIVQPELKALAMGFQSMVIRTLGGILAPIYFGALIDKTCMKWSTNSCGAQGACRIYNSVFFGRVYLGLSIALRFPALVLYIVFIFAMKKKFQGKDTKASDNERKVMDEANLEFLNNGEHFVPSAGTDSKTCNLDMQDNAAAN

[2] = tested on: OATP1B1, OATP1B3, and OATP2B1; assay: Classification of specific and general OATP inhibitors; conditions: 20 μM, inhibitor = at least 50% inhibition
OATP2B1 [3] = target: T1, OATP2B1; assay: Transport kinetics of substrate uptake in OATP2B1-HEK293 cells; format: cell-based
BCRP = conditions: cited from earlier work
OATP1B1 = target: T3, OATP1B1 (Homo sapiens, UniProt Q9Y6L6)
T3 sequence (Q9Y6L6 1-691): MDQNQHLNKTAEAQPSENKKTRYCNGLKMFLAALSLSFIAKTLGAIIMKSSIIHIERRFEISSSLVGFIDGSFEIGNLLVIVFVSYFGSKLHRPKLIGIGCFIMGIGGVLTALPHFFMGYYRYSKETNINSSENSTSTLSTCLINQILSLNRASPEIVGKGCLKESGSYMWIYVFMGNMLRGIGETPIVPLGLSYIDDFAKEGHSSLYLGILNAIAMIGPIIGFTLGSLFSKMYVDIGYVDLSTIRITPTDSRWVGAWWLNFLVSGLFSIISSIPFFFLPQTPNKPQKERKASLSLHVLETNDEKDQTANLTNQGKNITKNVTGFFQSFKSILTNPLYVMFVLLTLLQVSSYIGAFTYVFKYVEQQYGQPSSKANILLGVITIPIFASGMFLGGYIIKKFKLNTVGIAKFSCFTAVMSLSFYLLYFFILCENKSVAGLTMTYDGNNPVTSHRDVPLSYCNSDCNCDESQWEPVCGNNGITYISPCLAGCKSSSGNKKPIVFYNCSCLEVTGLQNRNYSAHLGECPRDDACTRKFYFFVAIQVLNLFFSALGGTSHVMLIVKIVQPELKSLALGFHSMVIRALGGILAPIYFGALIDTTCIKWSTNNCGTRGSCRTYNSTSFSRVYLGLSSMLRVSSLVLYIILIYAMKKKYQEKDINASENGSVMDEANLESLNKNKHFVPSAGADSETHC

MRP2 = conditions: read-out: IC50 (MRP2); cited from earlier work
MDR1 = conditions: read-out: IC50 (MDR1); cited from earlier work
[4] = OATP2B1 mediated uptake, HEK293

OCCN1CCN(CCC=C2c3ccccc3Sc3ccc(C(F)(F)F)cc32)CC1 [Flupenthixol]
OATP2B1 Inhib % (OATP2B1 [1]; human): 9.5% | OATP1B3 Inhib % (OATP1B3; human): 13.5%

Clc1ccccc1C(c1ccccc1)(c1ccccc1)n1ccnc1 [clotrimazole, Clotrimazole]
classification as OATP1B3 inhibitor/stimulator (single-point) (OATP1B3): stimulator

CC[C@H](C)C(=O)O[C@H]1C[C@H](O)C=C2C=C[C@H](C)[C@H](CC[C@@H](O)C[C@@H](O)CC(=O)O)[C@H]21 [pravastatin, Pravastatin]
OATP inhibitor classification based on single-point inhibition assays [2]: specific inhibitors of one of the OATP transporters | OATP inhibitor classification based on single-point inhibition assays ([2]; listed as pravastatin acid): specific OATP1B1 inhibitors

CCOc1ccc(-c2nc3cc(-c4nc5cc(N6CCN(C)CC6)ccc5[nH]4)ccc3[nH]2)cc1 [Hoechst 33342]
OATP inhibitor classification based on single-point inhibition assays [2]: OATP1B3, only three specific inhibitors

C[C@]12CC[C@@H]3c4ccc(OS(=O)(=O)O)cc4CC[C@H]3[C@@H]1CCC2=O [estrone-3-sulfate]
Km (OATP2B1 [3]; [4]): 38.2 ± 10.2 µM | Vmax (OATP2B1 [3]; [4]): 455.2 ± 55.36 pmol/mg protein/min | mean uptake of model substrate in OATP2B1 expressing HEK293 cells compared to passive uptake in mock-transfected cells (OATP2B1 [3]; n = 51 experiments): 44 times

Olmesartan
OATP2B1 Inhib % (OATP2B1 [1]): -7.9%

COc1ccc2c3c([nH]c2c1)[C@H](CC(C)C)N1C(=O)[C@H](CCC(=O)OC(C)(C)C)NC(=O)[C@@H]1C3 [KO143]
concentration that completely inhibits BCRP (BCRP): 1 µM

CCC(C)(C)C(=O)O[C@H]1C[C@@H](C)C=C2C=C[C@H](C)[C@H](CC[C@@H](O)C[C@@H](O)CC(=O)O)[C@H]21 [simvastatin acid]
OATP inhibitor classification based on single-point inhibition assays [2]: specific OATP1B1 inhibitors

CC(NCCC(c1ccccc1)c1ccccc1)c1ccccc1 (stereo not drawn) [fendiline, Fendiline]
classification as OATP2B1 inhibitor/stimulator (single-point) (OATP2B1 [1]): stimulate

COc1ccc2c(c1)c(CC(=O)O)c(C)n2C(=O)c1ccc(Cl)cc1 [indometacin, Indomethacin]
OATP inhibitor classification based on single-point inhibition assays [2]: specific inhibitors of one of the OATP transporters

O=C(O)c1cc(/N=N/c2ccc(S(=O)(=O)Nc3ccccn3)cc2)ccc1O [sulfasalazine, Sulfasalazine]
OATP inhibitor classification based on single-point inhibition assays [2]: general OATP inhibitors

O=C(O)C(=O)O.[NH-][C@@H]1CCCC[C@H]1[NH-].[Pt+2] [Oxaliplatin]
OATP2B1 Inhib % (OATP2B1 [1]): 8.2% | OATP1B3 Inhib % (OATP1B3): 9.9% | OATP1B1 Inhib % (OATP1B1): 13.0%

C[C@@H]1NC(=O)[C@H](C[C@@](C)(O)CO)NC(=O)[C@H]2NC(=O)[C@H](C)NC(=O)[C@@H]3C[C@H](O)CN3C(=O)[C@@H](CSc3[nH]c4ccccc4c32)NC(=O)[C@H]([C@@H](C)O)NC1=O [Phalloidin] (cyclo(AT[dC][cisHyp]A[X1][Leu(4R-OH,5-OH)]); thioether 3-6)
OATP2B1 Inhib % (OATP2B1 [1]; human): 24.1% | OATP1B3 Inhib % (OATP1B3; human): 36.2%

C[C@]12CC[C@H]3[C@@H](CCC4=CC(=O)CC[C@@]43C)[C@@H]1CC[C@@H]2O [testosterone, Testosterone]
classification as OATP2B1 inhibitor/stimulator (single-point) (OATP2B1 [1]): stimulate

COC(=O)N[C@H](C(=O)N[C@@H](Cc1ccccc1)[C@@H](O)CN(Cc1ccc(-c2ccccn2)cc1)NC(=O)[C@@H](NC(=O)OC)C(C)(C)C)C(C)(C)C [atazanavir, Atazanavir]
OATP inhibitor classification based on single-point inhibition assays [2]: general OATP inhibitors

CN(C)C(=O)CCSC(SCCC(=O)O)c1cccc(/C=C/c2ccc3ccc(Cl)cc3n2)c1 (stereo not drawn) [MK571]
IC50 (MRP2): 10 µM | IC50 (MDR1): 26 µM | IC50 (BCRP; read-out: IC50 (BCRP)): 50 µM

cholecystokinin octapeptide [cholecystokinin octapeptide (CCK-8)]
OATP2B1 Inhib % (OATP2B1 [1]): 60.1% | OATP1B3 Inhib % (OATP1B3): 96.9%

CCc1nn(CCCN2CCN(c3cccc(Cl)c3)CC2)c(=O)n1CCOc1ccccc1 [nefazodone, Nefazodone]
classification as OATP2B1 inhibitor/stimulator (single-point) (OATP2B1 [1]): inhibitor | classification as OATP1B3 inhibitor/stimulator (single-point) (OATP1B3): inhibitor | classification as OATP1B1 inhibitor/stimulator (single-point) (OATP1B1; 20 μM): not interacting

CC(=O)[C@H]1CC[C@H]2[C@@H]3CCC4=CC(=O)CC[C@]4(C)[C@H]3CC[C@]12C [progesterone, Progesterone]
classification as OATP2B1 inhibitor/stimulator (single-point) (OATP2B1 [1]): stimulate

CC[C@H](C)C(=O)O[C@H]1C[C@@H](C)C=C2C=C[C@H](C)[C@H](CC[C@@H](O)C[C@@H](O)CC(=O)O)[C@H]21 [lovastatin acid]
OATP inhibitor classification based on single-point inhibition assays [2]: specific OATP1B1 inhibitors

C[C@@H]1[C@H](O)[C@@H](C)/C=C/C=C/CC/C=C/C=C/C=C/C=C/C(O[C@H]2O[C@H](C)[C@@H](O)[C@H](N)[C@@H]2O)CC2O[C@](O)(CC(O)C(O)CCC(O)CC(O)CC(O)CC(=O)O[C@H]1C)CC(O)C2C(=O)O (stereo partly drawn) [nystatin, Nystatin]
OATP2B1 Inhib % (OATP2B1 [1]): 23.4% | OATP1B3 Inhib % (OATP1B3): 74.9%

CC[C@]1(O)C[C@H]2CN(CCc3c([nH]c4ccccc34)[C@@](C(=O)OC)(c3cc4c(cc3OC)N(C=O)[C@H]3[C@@](O)(C(=O)OC)[C@H](OC(C)=O)[C@]5(CC)C=CCN6CC[C@]43[C@@H]65)C2)C1 [vincristine, Vincristine]
OATP inhibitor classification based on single-point inhibition assays [2]: specific inhibitors of one of the OATP transporters; also recorded: OATP1B3, only three specific inhibitors | OATP inhibitor classification based on single-point inhibition assays ([2]; listed as Vincristine): specific inhibitor of OATP1B3

O=C1c2c(O)ccc(O)c2C(=O)c2c(NCCNCCO)ccc(NCCNCCO)c21 [mitoxantrone, Mitoxantrone]
OATP inhibitor classification based on single-point inhibition assays [2]: OATP1B3, only three specific inhibitors

C#Cc1cccc(Nc2ncnc3cc(OCCOC)c(OCCOC)cc23)c1 [erlotinib, Erlotinib]
OATP inhibitor classification based on single-point inhibition assays [2]: specific inhibitors of one of the OATP transporters

CN(C)c1ccc(C=Cc2cc[n+](C)cc2)cc1 [N-methylpyridinium, ASP+]
OATP2B1 Inhib % (OATP2B1 [1]): 12.8% | OATP1B3 Inhib % (OATP1B3): -2.3% | OATP1B1 Inhib % (OATP1B1): 27.9%

COc1cccc2c1C(=O)c1c(O)c3c(c(O)c1C2=O)C[C@@](O)(C(=O)CO)C[C@@H]3O[C@H]1C[C@H](N)[C@H](O)[C@H](C)O1 [doxorubicin, Doxorubicin]
OATP inhibitor classification based on single-point inhibition assays [2]: specific inhibitors of one of the OATP transporters

N[C@@H]1C[C@H]1c1ccccc1 (racemic) [Tranylcypromine]
OATP2B1 Inhib % (OATP2B1 [1]): 15.5% | OATP1B3 Inhib % (OATP1B3): -9.3% | OATP1B1 Inhib % (OATP1B1): -9.5%
